In this assay the target is T1, 5-Lipoxygenase (Mus musculus, UniProt P48999).
T1 construct: Use the interleukin-3-dependent murine mast cell clone, MC-9; endogenous in cells; host or cells: MC-9 murine mast cell clone (interleukin-3-dependent)
T1 sequence (P48999 1-674): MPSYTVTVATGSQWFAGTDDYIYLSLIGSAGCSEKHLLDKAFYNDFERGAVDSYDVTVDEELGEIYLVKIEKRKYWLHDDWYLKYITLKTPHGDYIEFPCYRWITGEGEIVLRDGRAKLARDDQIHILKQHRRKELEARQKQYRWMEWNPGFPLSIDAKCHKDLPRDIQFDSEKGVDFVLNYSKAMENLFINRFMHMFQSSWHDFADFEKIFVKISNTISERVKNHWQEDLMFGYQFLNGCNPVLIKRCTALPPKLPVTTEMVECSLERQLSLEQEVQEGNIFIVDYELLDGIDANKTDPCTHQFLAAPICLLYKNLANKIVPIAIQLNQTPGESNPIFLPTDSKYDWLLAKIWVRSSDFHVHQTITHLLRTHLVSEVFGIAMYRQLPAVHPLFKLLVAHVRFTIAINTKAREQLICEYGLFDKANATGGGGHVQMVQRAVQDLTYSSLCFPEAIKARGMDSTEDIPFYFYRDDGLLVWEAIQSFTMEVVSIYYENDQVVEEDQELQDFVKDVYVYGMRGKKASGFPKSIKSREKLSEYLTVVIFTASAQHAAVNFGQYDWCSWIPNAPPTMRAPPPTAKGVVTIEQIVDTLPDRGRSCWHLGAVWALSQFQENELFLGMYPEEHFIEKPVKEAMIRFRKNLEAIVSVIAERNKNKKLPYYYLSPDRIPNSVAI
As to the kind of experiment: 5-Lipoxygenase Assay (inhibition of LTC4 and 5-HETE production in MC-9 mast cells). Format: cell-based. Conditions: MC-9 murine mast cells, [14C]-arachidonic acid, A23187. The source says: Use the interleukin-3-dependent murine mast cell clone, MC-9, to test the effects of representative compounds of the invention on lipoxygenase activity. Grow the MC-9 cell line in suspension culture (0.4 to 1.2×10^6 cells/ml) in RPMI 1640 medium (Gibco) with 10% fetal bovine serum (Hyclone) and 2-5% concanavalin-A conditioned supernatant (Musch et. al., (1985) Prostagandins 29, 405-4307). Harvest the cells, wash them twice by centrifugation, and resuspend them in a Ca^++ -free HEPES buffer (25 mM HEPES, 125 mM NaCl, 2.5 mMKCl, 0.7 mM MgCl2 0.5 mM EDTA and 10 mM glucose at pH 7.4).
Preincubate MC-9 cells (0.39 ml at 7.5×10^6 cells/ml) without or with test compound dissolved in dimethylsulfoxide (DMSO) vehicle (to final volume 1 ml) for 4 minutes then incubate for 5 minutes with [^14 C]-arachidonic acid (Amersham, 59 Ci/mole) at a […] final concentration, and A23187 (Calbiochem) at a […] final concentration in […] of water:ethanol (9:1). Stop the reaction by addition of methanol (0.4 ml), and remove cellular debris by centrifugation. Run aliquots ([…]) of the incubations on a Waters two-pump HPLC system fitted with a Waters radial compression column (C18, 10 micron, 8×100 mm, micro-Bondapak) and C18 "Guard Pak". Initially elute the column at 3 ml/min with water:methanol:acetic acid (67:33:0.08) containing 1 mM EDTA adjusted to pH 6.0 with ammonium hydroxide (Pump A). At 4 minutes, establish a linear gradient to reach 100% methanol (Pump B) at 9 minutes. Between 13 and 14 minutes, exchange for the initial eluting solvent and by 19 minutes the column will be reequilibrated for the next sample. Analyze the effluent by a continuous flow radioactivity monitor (model ROMONA-D) interfaced with a Hewlett Packard Lab Automation System for quantitation of radioactive products.
These products are predominantly leukotriene C4 (LTC4), which elutes at 6 minutes, and 5-hydroxeicosatetraenoic acid (5-HETE), which elutes at 11 minutes (Musch et. al., supra). […] Doses in table 1 are 50 μM unless otherwise noted.
The term inhibition denotes how much of the control response was suppressed. A high value points to a strong effect. For the compound `O=C(O)CCC/C=C\c1cccc(OCc2ccccc2)c1`, the inhibition at 50 µM was determined as 89%.

As for `O=C(O)CCC/C=C/c1cccc(OCc2ccccc2)c1`, the inhibition at 50 µM is 84%.

In turn, `O=C(O)CCCCCc1cccc(OCc2ccccc2)c1` showed an inhibition at 50 µM of 80%.

On to `O=C(O)CCC/C=C/c1cccc(OCC2CCCCO2)c1` (stereo not drawn), for which the inhibition at 50 µM came out at 23%.

Compound `O=C(O)CCC/C=C/c1cccc(Oc2ccccc2)c1` showed an inhibition at 50 µM of 74%.

Consider `O=C(O)CCC/C=C/c1cccc(OCc2cccnc2)c1`, for which testing at 50 µM gave an inhibition of 7%.

`O=C(O)CCC/C=C/c1cccc(SCc2ccccc2)c1` gave an inhibition at 50 µM of 0%.

Compound `O=C(O)CCCC#Cc1cccc(OCc2ccccc2)c1` returned an inhibition at 50 µM of 80%.

Regarding `CCOC(=O)CCC/C=C/c1cccc(OCc2c[nH]cn2)c1`, at 50 µM the inhibition was 89%.

These data come from US4897397A, “Aryl-alkynoic, alkenoic or alkanoic compounds and compositions useful as antiallergy and anti-inflammatory agents” (Schering Corporation, priority 1988, dated 1990).
